Test results: publication PMC3716696 (PLoS ONE, 2013)
“Also recorded” adds a separate entry of the source. Values belong to the compound of their own block, whether it stands above or below them. Non-standard residues stand in square brackets, D forms with d. Residues, ends and D or L forms follow the SMILES beside them. *: point of attachment. Sta = CC(C)C[C@H](N)[C@@H](O)CC(=O)O; Isovaleryl = CC(C)CC(=O)*

Assays:
[1] = test system: SP-degrading / SP1–9-producing activity of spinal cord membrane lysates; experiment: SP degradation in spinal cord membrane lysates with metalloprotease inhibitors; format: biochemical, mouse; details: membrane lysate 1 mg/mL, 30 min pre-incubation 37°C, SP 100 μM, 1 h 37°C, LC-MS, N = 4; for Inhibition of SP degradation (in words): inhibitor 100 μM (TIMP2 4 μM)
Method: All inhibitors were present at 100 μM except for TIMP2, which was present at 4 μM. After the pre-incubation with each inhibitor, either SP or SP1–9 was added to 100 μM final concentration. The reactions proceeded at 37°C for 1 h. Dried samples were dissolved in 0.1% formic acid (aq) and analyzed by LC-MS/MS for SP or SP1–9-degrading activity.
(§1) For LC-MS analysis, an Agilent 6220 LC-ESI-TOF instrument was used in the positive mode. A Bio-Bond C18 (5 μm, 150×2.1 mm) column was used together with a precolumn (C18, 3.5 μm, 2×20 mm). Following injection of 25 μL of 5 μM solutions, the samples were trapped at an isocratic flow rate of 0.1 ml/min for five minutes and eluted at a flow rate of 0.25 mL/min via a mobile phase gradient of 2–100% B in 40 min (Mobile Phase A: 0.1% formic acid in water, Mobile Phase B: 0.1% formic acid in acetonitrile). MS analysis was performed with an electrospray ionization (ESI) source. The capillary voltage was set at 4.0 kV and the fragmentor voltage to 100 V. The drying gas temperature was 350°C, the drying gas flow rate was 10 L/min, and the nebulizer pressure was 45 psi. Data was collected in the centroid mode using a mass range of 100–500 Da. The peptides were analyzed by mass extraction of the +3 charge state.

[2] = in vivo; cited from earlier work
[3] = test system: SP-degrading activity of spinal cord membrane lysates; experiment: SP degradation in spinal cord membrane lysates with general enzyme class inhibitors; format: biochemical, mouse; details: membrane lysate 1 mg/mL, 30 min pre-incubation 37°C, SP 100 μM, 1 h 37°C; 1 mM o-phenanthroline, 10 μM pepstatin A, 1 mM PMSF; LC-MS, N = 4
Method: The membrane fraction of spinal cord lysates (1 mg/mL) were pre-incubated at 37°C for 30 minutes separately with each of the following inhibitors (N = 4): 10 μM E-64 (cysteine protease), 1 mM iodoacetamide (cysteine protease), 1 mM o-phenanthroline (metalloprotease), 10 μM pepstatin A (aspartyl protease), 1 mM phenylmethylsulfonyl fluoride (PMSF, serine protease), 1 mM diisopropylfluorophosphate (serine protease), and vehicle (PBS with DMSO for 5% DMSO final concentration in reaction). After the pre-incubation with each inhibitor, SP was added to 100 μM final concentration. The reactions proceeded at 37°C for 1 h. Dried samples were dissolved in 0.1% formic acid (aq) and analyzed by LC-MS/MS for SP-degrading activity (i.e. formation of SP1–7 and SP1–9) using the method outlined in “MALDI-TOF MS and LC-MS/MS analysis of in vitro peptides” section.
as §1

[4] = N-terminal SP fragment formation in spinal cord soluble and membrane lysates; format: in vitro ADME, mouse; details: for Degradation product of SP1–9 in spinal cord lysates: SP1–9 100 μM incubated in spinal cord lysate, 37°C, 1 h, LC-MS (Fig. S3)
Method: Three mouse spinal cords were dounce homogenized in 1.1 mL phosphate buffered saline (PBS) on ice and then sonicated for 15 s at 4°C. Tissue debris was separated by centrifuging the sample at 5,000×g for 20 min at 4°C. The soluble fraction was collected after ultracentrifugation of the sample at 55,000×g for 1 h at 4°C. The membrane pellet that remained was washed 3x with 600 μL PBS. The pellet was then suspended in 100 μL PBS by sonication for 5 s at 4°C. The sample was ultracentrifugation at 55,000×g for 1 h at 4°C and the supernatant was separated as a wash membrane sample. The pellet was suspended in 100 μL of 1 mM sodium deoxycholate (Alfa Aesar) by sonication for 5 s at 4°C then stirred for 30 min at 4°C. Ultracentrifugation of the sample at 55,000×g for 1 h at 4°C separated the supernatant as a 1 mM deoxycholate-solubilized membrane fraction. The remaining pellet was washed 3x with 600 μL 1 mM deoxycholate solution. The pellet was subsequently suspended in 4, 12, and 24 mM deoxycholate following the same cycle. The final pellet was suspended in 100 μL PBS. The protein content in the soluble and membrane lysates was quantified by the Bradford assay. […] The reactions were quenched with neat formic acid and speed vac dried. The samples were dissolved in 0.1% formic acid (aq) and analyzed by MALDI-TOF MS for SP-degrading activity (i.e. formation of SP1–7 and SP1–9) using the method outlined in “MALDI-TOF MS and LC-MS/MS analysis of in vitro peptides” section. […]
MALDI-TOF MS was performed with α-cyano-4-hydroxycinnamic acid as the matrix using 2 μL of a 50 μM reconstituted degradation reaction solution (based on initial SP quantities). […]
To determine the candidate proteolytic pathway or pathways for SP degradation in the spinal cord, we separated tissue lysates from mouse spinal cords into membrane and soluble fractions, incubated them with full-length SP for varying lengths of time (15, 60, 240 min) and then analyzed the quenched reactions by MALDI mass spectrometry to identify any SP fragments that had been produced. […]

NEP [5] = experiment: SP degradation and SP levels in WT and Nep–/– spinal cord; format: in vitro ADME, mouse; details: 1 mg/mL WT and Nep–/– spinal cord membrane lysates, LC-MS/MS
Method: The levels of SP in WT and Nep^–/– mice spinal cord tissue (N = 4) were compared by IDMS using Top 6 MS/MS as described previously. The degradation of SP was compared in 1 mg/mL WT and Nep^–/– mice spinal cord membrane lysates using LC-MS/MS analysis following the above method.

ACE = details: cited from earlier work
ECE-1 = details: cited from earlier work
[6] = membrane fraction of mouse spinal cord lysates (1 mg/mL); details: mouse (C57BL/6), 37°C, up to 240 min
[7] = membrane fraction of spinal cord lysates (1 mg/mL) with class-selective inhibitors; details: mouse, 37°C, up to 1 h
NEP [8] = details: cited from earlier work
[9] = soluble fraction of mouse spinal cord lysates (1 mg/mL); details: mouse (C57BL/6), 37°C, up to 240 min
Meprin 1A = details: cited from earlier work
[10] = mouse spinal cord tissue (endogenous peptides, boiled and extracted); details: mouse (C57BL/6)
[11] = membrane fraction of spinal cord lysates (1 mg/mL) with metalloprotease inhibitors; details: mouse, 37°C, up to 1 h
MMP9 = details: cited from earlier work
ECE-2 = details: cited from earlier work
[12] = cell lysates with synthetic peptide; synthetic peptide introduced into a living tissue (pseudo-in vivo); details: cited from earlier work
Pitrilysin = details: cited from earlier work
[13] = membrane fraction of spinal cord lysates (1 mg/mL); details: mouse (C57BL/6), 37°C, up to 1 h

Compound: CNC(=O)[C@H](Cc1c[nH]c2ccccc12)NC(=O)[C@@H](CC(=O)NO)CC(C)C [GM6001]
Inhibition of SP degradation (in words) [1]: most effective compound at preventing SP degradation; also recorded: least amount of SP degradation
Decrease in SP1–9 production compared to vehicle ([1]; inhibitor 100 μM): greater than 10 fold
Increase in SP levels compared to vehicle ([1]; inhibitor 100 μM): ~2 fold
Inhibition of SP1–9 production (in words) ([1]; inhibitor 100 μM): best inhibitor of SP1–9 production; also recorded: strongly inhibited; also recorded: potently blocks
Bioavailability [2]: bioavailable

Compound: O=S(=O)(F)Cc1ccccc1 [PMSF, phenylmethylsulfonyl fluoride]
Effect on SP1–7 production [3]: regulate SP1-7 production
Inhibition of SP1–9 production [3]: small effect
Inhibition of SP degradation (SP levels vs vehicle) [3]: Modest increases

Compound: CCCCC[C@H](CC(=O)NO)C(=O)N[C@H](C(=O)N1CCC[C@H]1CO)C(C)C [actinonin]
Inhibition of SP degradation (in words) [1]: could inhibit
Inhibition of SP1–9 production (in words) ([1]; inhibitor 100 μM): could inhibit

Compound: CC(C)C[C@H](NP(=O)(O)O[C@@H]1O[C@@H](C)[C@H](O)[C@@H](O)[C@H]1O)C(=O)N[C@@H](Cc1c[nH]c2ccccc12)C(=O)O [phosphoramidon]
Inhibition of SP degradation (in words) [1]: could inhibit
Inhibition of SP1–9 production (in words) ([1]; inhibitor 100 μM): could inhibit
Inhibition of SP1–9 production (in words) ([1]; inhibitor 100 μM, listed as Phosphoramidon): slows SP1–9 production

The next lines start with results.

Effect on SP1–7 production [3]: regulate SP1-7 production
Compound: c1cnc2c(c1)ccc1cccnc12 [O-phenanthroline]
Inhibition of SP1–9 production [3]: most potent inhibitor of SP1–9 production; also recorded: strongest inhibitor of SP1–9 production
Inhibition of SP degradation (SP levels vs vehicle) [3]: most effective compound at inhibiting SP degradation; also recorded: twice as high as the vehicle control

Degradation product of SP1–9 in spinal cord lysates [4]: SP1–7 was produced
Degradation product of SP1–9 in spinal cord lysates ([4]; listed as SP 1–9): SP1–7 is produced
Compound: N=C(N)NCCC[C@H](N)C(=O)N1CCC[C@H]1C(=O)N[C@@H](CCCCN)C(=O)N1CCC[C@H]1C(=O)N[C@@H](CCC(N)=O)C(=O)N[C@@H](CCC(N)=O)C(=O)N[C@@H](Cc1ccccc1)C(=O)N[C@@H](Cc1ccccc1)C(=O)NCC(=O)O [SP1–9] (H-RPKPQQFFG-OH)

SP degradation in NEP+/+ vs NEP–/– spinal cord lysates (NEP [5]): no significant difference
SP fragments formed in soluble fraction of spinal cord lysate ([4]; pH 7.34): No discernable fragments
Compound: CSCC[C@H](NC(=O)[C@H](CC(C)C)NC(=O)CNC(=O)[C@H](Cc1ccccc1)NC(=O)[C@H](Cc1ccccc1)NC(=O)[C@H](CCC(N)=O)NC(=O)[C@H](CCC(N)=O)NC(=O)[C@@H]1CCCN1C(=O)[C@H](CCCCN)NC(=O)[C@@H]1CCCN1C(=O)[C@@H](N)CCCN=C(N)N)C(N)=O [SP, Substance P]

Effect on SP1–7 production [3]: regulate SP1-7 production
Inhibition of SP1–9 production [3]: small effect
Inhibition of SP degradation (SP levels vs vehicle) [3]: Modest increases
Compound: CC(C)CC(=O)N[C@H](C(=O)N[C@H](C(=O)N[C@@H](CC(C)C)[C@@H](O)CC(=O)N[C@@H](C)C(=O)N[C@@H](CC(C)C)[C@@H](O)CC(=O)O)C(C)C)C(C)C [pepstatin A] (Isovaleryl-VV[Sta]A[Sta]-OH)

cleaved bond [6]: G9-L10, major
cleaved bond [7]: G9-L10, major
fragment found [7]: SP1–7
cleaved bond [10]: G9-L10, major
fragment found [10]: SP1–7, major
cleaved bond [11]: G9-L10, major
Compound: H2N-RPKPQQFFGLM-CONH2
cleaved bond (ACE): G9-L10
cleaved bond (ECE-1): G9-L10
fragment found [6]: SP1–10; also recorded: SP1–8; also recorded: SP1–7; also recorded: SP3-11
cleaved bond (NEP [8]): G9-L10
not cleaved [9]: No discernable fragments appeared in the soluble fraction
cleaved bond (Meprin 1A): G9-L10
cleaved bond (MMP9): G9-L10
cleaved bond (ECE-2): G9-L10
fragment found [12]: SP1–9; also recorded: SP1–8; also recorded: SP1–7; also recorded: SP5–11; also recorded: SP6–11; also recorded: SP7–11; also recorded: SP8–11
cleaved bond (Pitrilysin): G9-L10

fragment found [13]: SP1–7
Compound: H-RPKPQQFFG-OH
